Read-outs that look alike come from different tables or passages of the source.
System: aspirin-induced gastric bleeding
Assay: Prevention of aspirin-induced gastric bleeding in pyloric-ligated rats, i.p. test compound (Examples 1-22)
Type: in vivo, Female Sprague-Dawley rats
Conditions: for Gastric Bleeding Index: score 0 to 40
Protocol: The prevention of aspirin-induced bleeding in rats was determined by the following procedure. Female Sprague-Dawley rats weighing 150-180 g. were fasted for 24 hours on wire and divided into groups of six animals each. The rats were anesthetized and a ligature placed at the pyloric-duodenal junction. Groups serving as controls received normal saline (4.0 ml/kg, i.p.). […] Some of the compounds were tested at 50 mg/kg, i.p. The rats were sacrificed 60 min. after aspirin administration by cervical dislocation. The volume of the gastric contents was determined and compared against that produced with the same amount of aspirin for change in volume. […] (Gradation between 0 to 40 is on an even scale).

[1] = rat, 100 mg/kg i.p. (column head states no dose), aspirin 375 mg/kg p.o.
[2] = ip, 1 h, rat, 100 mg/kg i.p., aspirin 375 mg/kg p.o., read-out: Percent Decrease in Mucosal Bleeding vs Control
[3] = ip, rat, 100 mg/kg i.p. (column head states no dose), aspirin 375 mg/kg p.o., read-out: Vol. % Decrease in Gastric Secretion

Question: What does the source list for “1-(3,5-dimethyl)-2-hydroxypropyl-4-ethyl thiosemicarbazide [Compound 19]”?
Answer: Vol. % Decrease in Gastric Secretion [1]: -40.5%; Percent Decrease in Mucosal Bleeding vs Control (rat, 100 mg/kg i.p., aspirin 375 mg/kg p.o.): 100%; Gastric Bleeding Index [1]: 0.0

Question: `OCC(CO)Oc1ccccc1` [Compound 1, 2-phenoxy-1,3-propanediol] was tested. Which change in vivo at 100 mg/kg [2] did it give?
Answer: The change in vivo at 100 mg/kg was -15%.

Question: And the “Gastric Bleeding Index” value [1]?
Answer: Its value is 31.7.

Question: How did the change in vivo at 100 mg/kg (Rattus norvegicus, ip, 1 h, read-out: Percent Decrease in Mucosal Bleeding vs Control) turn out when `OCC(O)COc1ccccc1` (stereo not shown) [Compound 2, 3-phenoxy-1,2-propanediol] was run?
Answer: Its change in vivo at 100 mg/kg is -14%.

Question: What about the change in vivo at 100 mg/kg (Rattus norvegicus, ip, read-out: Vol. % Decrease in Gastric Secretion) of the same compound?
Answer: The change in vivo at 100 mg/kg was -14.1%.

Question: What about the “Gastric Bleeding Index” value [1] of the same compound?
Answer: Its value is 20.0.

Question: What does the source list for `COc1ccccc1OCC(O)COC(=O)N(C)C` (stereo not shown) [Compound 4, N,N-dimethyl 3-(2-methoxyphenoxy)-1,2-propanediol-1-carbamate]?
Answer: change in vivo at 100 mg/kg [2]: -70%; change in vivo at 100 mg/kg [3]: -35.2%; Gastric Bleeding Index [1]: 11.7

Question: What does the source list for `COc1ccccc1OCC(C)O` (stereo not shown) [Compound 5, 1-(2-methoxyphenoxy)-2-propanol]?
Answer: change in vivo at 100 mg/kg [2]: -66%; change in vivo at 100 mg/kg [3]: -42%; Gastric Bleeding Index [1]: 12.5

Question: For `COc1ccc(Cl)cc1OCC(C)O` (stereo not shown) [Compound 6, 1-(5-chloro-2-methoxyphenoxy)-2-propanol], which change in vivo at 100 mg/kg [2] is on record?
Answer: Its change in vivo at 100 mg/kg is -93%.

Question: What about the change in vivo at 100 mg/kg [3] of the same compound?
Answer: The change in vivo at 100 mg/kg was -42.2%.

Question: And the “Gastric Bleeding Index” value [1]?
Answer: The value was 1.7.

Question: What does the source list for `COc1ccc(Cl)cc1OCC(O)CO` (stereo not shown) [Compound 7, 3-(5-chloro-2-methoxyphenoxy)-1,2-propanediol]?
Answer: change in vivo at 100 mg/kg [2]: -49%; change in vivo at 100 mg/kg [3]: -42%; Gastric Bleeding Index [1]: 19.2

Question: `Cc1ccc(Cl)cc1OCC(O)COC(N)=O` (stereo not shown) [Compound 9, 3-(5-chloro-2-methylphenoxy)-1,2-propanediol-1-carbamate] was tested. Which change in vivo at 100 mg/kg [2] did it give?
Answer: The change in vivo at 100 mg/kg was -81%.

Question: What about the change in vivo at 100 mg/kg [3] of the same compound?
Answer: The change in vivo at 100 mg/kg was -36.6%.

Question: What about the “Gastric Bleeding Index” value [1] of the same compound?
Answer: The value was 7.2.

Question: What does the source list for `Cc1c(Cl)cccc1OCC(C)O` (stereo not shown) [Compound 10, 1-(3-chloro-2-methylphenoxy)-2-propanol]?
Answer: change in vivo at 100 mg/kg [2]: -40%; change in vivo at 100 mg/kg [3]: -18.8%; Gastric Bleeding Index [1]: 22.5

Question: `Cc1ccc(Cl)cc1OCC(O)CO` (stereo not shown) [Compound 11, 3-(5-chloro-2-methylphenoxy)-1,2-propanediol] was tested. Which change in vivo at 100 mg/kg [2] did it give?
Answer: Its change in vivo at 100 mg/kg is -10%.

Question: What about the change in vivo at 100 mg/kg [3] of the same compound?
Answer: Its change in vivo at 100 mg/kg is -29.7%.

Question: And the “Gastric Bleeding Index” value [1]?
Answer: Its value is 20.8.

Question: `Cc1ccc(Cl)cc1OCC(C)O` (stereo not shown) [Compound 12, 3-(5-chloro-2-methylphenoxy)-2-propanol] was tested. Which change in vivo at 100 mg/kg [2] did it give?
Answer: Its change in vivo at 100 mg/kg is -75%.

Question: And the change in vivo at 100 mg/kg [3]?
Answer: Its change in vivo at 100 mg/kg is -35.9%.

Question: What about the “Gastric Bleeding Index” value [1] of the same compound?
Answer: The value was 5.8.

Question: `COc1ccc(Cl)cc1OCC(O)COC(N)=O` (stereo not shown) [Compound 13, 3-(5-chloro-2-methoxyphenoxy)-1,2-propanediol-1-carbamate] was tested. Which change in vivo at 100 mg/kg [2] did it give?
Answer: The change in vivo at 100 mg/kg was -100%.

Question: And the change in vivo at 100 mg/kg [3]?
Answer: The change in vivo at 100 mg/kg was -57.6%.

Question: And the “Gastric Bleeding Index” value [1]?
Answer: The value was 0.0.

Question: What does the source list for `CCCCNCC(O)COc1ccccc1OC` (stereo not shown) [Compound 14, 1-(n-butylamino)-3-(2-methoxyphenoxy)-2-propanol]?
Answer: change in vivo at 50 mg/kg (ip, 1 h, rat, 50 mg/kg i.p., aspirin 375 mg/kg p.o., read-out: Percent Decrease in Mucosal Bleeding vs Control): -78%; change in vivo at 100 mg/kg [2]: -70%; change in vivo at 100 mg/kg [3]: -35.6%; Toxicity remark (rat, 100 mg/kg i.p.): Toxic; Gastric Bleeding Index [1]: 5.8

Question: Which change in vivo at 100 mg/kg [2] does the source give for `O=C1NCC(COc2ccc(Cl)cc2Cl)O1` (stereo not shown) [Compound 16, 5-(2,4-dichlorophenoxymethyl)-2-oxazolidinone] here?
Answer: The change in vivo at 100 mg/kg was -100%.

Question: And the change in vivo at 100 mg/kg [3]?
Answer: The change in vivo at 100 mg/kg was -44.6%.

Question: What about the “Gastric Bleeding Index” value [1] of the same compound?
Answer: The value was 0.0.

Question: `Cc1cccc(Cl)c1OCC(C)OC(N)=O` (stereo not shown) [Compound 17, 1-(6-chloro-2-methylphenoxy)-2-propylcarbamate] was tested. Which change in vivo at 100 mg/kg [2] did it give?
Answer: The change in vivo at 100 mg/kg was -72%.

Question: And the change in vivo at 100 mg/kg [3]?
Answer: Its change in vivo at 100 mg/kg is -36.5%.

Question: What about the “Gastric Bleeding Index” value [1] of the same compound?
Answer: Its value is 7.5.

Question: With `Cc1cc(Cl)ccc1OCC(C)OC(=O)NC(C)C` (stereo not shown) [Compound 18, N-isopropyl 1-(4-chloro-2-methylphenoxy)-2-propylcarbamate] as the compound, how does the change in vivo at 100 mg/kg [2] read?
Answer: Its change in vivo at 100 mg/kg is -28%.

Question: What about the change in vivo at 100 mg/kg [3] of the same compound?
Answer: Its change in vivo at 100 mg/kg is -29.3%.

Question: And the “Gastric Bleeding Index” value [1]?
Answer: Its value is 19.2.

Question: Which change in vivo at 100 mg/kg [2] does the source give for `CNC(=O)N1CCC(Oc2cccc(Cl)c2)C1` (stereo not shown) [Compound 20, 3-(3-chlorophenoxy)-1-methylcarbamoyl-pyrrolidine] here?
Answer: Its change in vivo at 100 mg/kg is -100%.

Question: And the change in vivo at 100 mg/kg [3]?
Answer: Its change in vivo at 100 mg/kg is -31%.

Question: And the “Gastric Bleeding Index” value [1]?
Answer: Its value is 0.0.
